In US7648989B2, “Indolylmaleimide derivatives as PKC inhibitors” (Novartis AG, priority 2004, dated 2010):

What was measured:
[1] = target: T1, Human recombinant PKCβ1 (Homo sapiens, UniProt P05771); experiment: Protein Kinase Cβ1 assay; assay type: biochemical; conditions: selectivity ratio relative to PKCα
T1 construct: purchased Oxford Biomedical Research
Experimental: (§1) The compounds of the invention are tested for their activity on different PKC isoforms according to the following method. Assay is performed in a white with clear bottom 384-well microtiterplate with non-binding surface. The reaction mixture (25 μl) contains 1.5 μM of a tridecapeptide acceptor substrate that mimics the pseudo substrate sequence of PKC α with the Ala→Ser replacement, 10 μM ^33P-ATP, 10 mM Mg(NO3)2, 0.2 mM CaCl2, PKC at a protein concentration varying from 25 to 400 ng/ml (depending on the isotype used), lipid vesicles (containing 30 mol % phosphatidylserine, 5 mol % DAG and 65 mol % phosphatidylcholine) at a final lipid concentration of 0.5 mM, in 20 mM Tris-HCl buffer pH 7.4+0.1% BSA. Incubation is performed for 60 min at room temperature.
Human recombinant PKCβ1 is obtained from Oxford Biomedical Research and is used under the assay conditions as described under Section A.1 above.

[2] = target: Human recombinant PKCθ (Homo sapiens, UniProt Q04759); experiment: Protein Kinase Cθ assay; assay type: biochemical; conditions: selectivity ratio relative to PKCα
Chain of Human recombinant PKCθ (Q04759 whole entry): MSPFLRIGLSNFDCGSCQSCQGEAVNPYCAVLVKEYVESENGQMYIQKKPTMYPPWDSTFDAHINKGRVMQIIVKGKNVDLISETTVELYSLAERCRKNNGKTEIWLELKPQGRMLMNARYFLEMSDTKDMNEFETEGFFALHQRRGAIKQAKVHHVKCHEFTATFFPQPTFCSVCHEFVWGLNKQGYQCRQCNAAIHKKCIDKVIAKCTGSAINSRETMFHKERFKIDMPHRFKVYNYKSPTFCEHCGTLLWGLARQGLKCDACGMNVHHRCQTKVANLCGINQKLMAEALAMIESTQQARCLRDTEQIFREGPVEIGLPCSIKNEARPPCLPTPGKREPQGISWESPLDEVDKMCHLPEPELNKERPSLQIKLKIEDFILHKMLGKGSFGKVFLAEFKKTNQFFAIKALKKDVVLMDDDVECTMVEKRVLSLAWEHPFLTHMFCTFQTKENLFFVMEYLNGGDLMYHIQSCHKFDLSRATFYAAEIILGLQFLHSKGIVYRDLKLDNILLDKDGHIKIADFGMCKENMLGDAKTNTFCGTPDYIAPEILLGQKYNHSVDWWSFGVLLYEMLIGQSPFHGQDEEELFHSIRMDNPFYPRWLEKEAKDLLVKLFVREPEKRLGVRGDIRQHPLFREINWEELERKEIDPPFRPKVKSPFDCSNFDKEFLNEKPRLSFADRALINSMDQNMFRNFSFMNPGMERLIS
Experimental: as §1
Human recombinant PKCθ is used under the assay conditions as described above.

[3] = test system: spleen cells from CBA and BALB/c mice (MLR); bone marrow cells from CBA mice (BM); experiment: Allogeneic Mixed Lymphocyte Reaction (MLR) assay compared with Bone Marrow Proliferative (BM) assay; assay type: cell-based; conditions: mouse MLR and mouse bone marrow proliferation, 3H-thymidine incorporation
Experimental: Bone marrow cells from CBA mice (2.5×10^4 cells per well in flat bottom tissue culture microtiter plates) are incubated in 100 μl RPMI medium containing 10% FCS, 100 U/ml penicillin, 100 μg/ml streptomycin (Gibco BRL, Basel, Switzerland), 50 μM 2-mercaptoethanol (Fluka, Buchs, Switzerland), WEHI-3 conditioned medium (7.5% v/v) and L929 conditioned medium (3% v/v) as a source of growth factors and serially diluted compounds. Seven three-fold dilution steps in duplicates per test compound are performed. After four days of incubation 1 μCi ^3H-thymidine is added. Cells are harvested after an additional five-hour incubation period, and incorporated ^3H-thymidine is determined according to standard procedures. Conditioned media are prepared as follows. WEHI-3 cells (ATCC TIB68) and L929 cells (ATCC CCL 1) are grown in RPMI medium until confluence for 4 days and one week, respectively. […]
Briefly, spleen cells from CBA and BALB/c mice (1.6×10^5 cells from each strain per well in flat bottom tissue culture microtiter plates, 3.2×10^5 in total) are incubated in RPMI medium containing 10% FCS, 100 U/ml penicillin, 100 μg/ml streptomycin (Gibco BRL, Basel, Switzerland), 50 μM 2-mercaptoethanol (Fluka, Buchs, Switzerland) and serially diluted compounds. […] Cells are harvested after an additional five-hour incubation period, and incorporated ^3H-thymidine is determined according to standard procedures. […]

[4] = target: T2, Human recombinant PKCδ (Homo sapiens, UniProt Q05655); experiment: Protein Kinase Cδ assay; assay type: biochemical; conditions: selectivity ratio relative to PKCα
T2 construct: purchased Oxford Biomedical Research
T2 sequence (Q05655 whole entry): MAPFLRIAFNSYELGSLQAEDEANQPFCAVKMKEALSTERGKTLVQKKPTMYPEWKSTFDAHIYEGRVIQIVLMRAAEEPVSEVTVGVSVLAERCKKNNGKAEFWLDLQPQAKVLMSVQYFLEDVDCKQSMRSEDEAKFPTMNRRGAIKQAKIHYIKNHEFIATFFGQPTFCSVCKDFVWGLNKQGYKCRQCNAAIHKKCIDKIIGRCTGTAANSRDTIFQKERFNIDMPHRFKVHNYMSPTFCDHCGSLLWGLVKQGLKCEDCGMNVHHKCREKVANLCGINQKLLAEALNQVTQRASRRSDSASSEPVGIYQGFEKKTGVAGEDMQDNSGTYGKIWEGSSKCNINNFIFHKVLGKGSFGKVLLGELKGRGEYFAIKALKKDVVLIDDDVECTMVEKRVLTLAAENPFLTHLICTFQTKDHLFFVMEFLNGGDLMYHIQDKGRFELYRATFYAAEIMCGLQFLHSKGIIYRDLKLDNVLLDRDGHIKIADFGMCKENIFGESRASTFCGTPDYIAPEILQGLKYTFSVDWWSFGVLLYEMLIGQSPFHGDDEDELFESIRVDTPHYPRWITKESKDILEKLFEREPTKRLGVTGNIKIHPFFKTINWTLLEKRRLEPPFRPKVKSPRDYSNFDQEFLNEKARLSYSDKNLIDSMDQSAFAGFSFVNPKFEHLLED
Experimental: as §1
Human recombinant PKCδ is obtained from Oxford Biomedical Research and is used under the assay conditions as described under Section A.1 above.

[5] = target: T3, Human recombinant PKCη (Homo sapiens, UniProt P24723); experiment: Protein Kinase Cη assay; assay type: biochemical; conditions: selectivity ratio relative to PKCα
T3 construct: purchased PanVera
T3 sequence (P24723 whole entry): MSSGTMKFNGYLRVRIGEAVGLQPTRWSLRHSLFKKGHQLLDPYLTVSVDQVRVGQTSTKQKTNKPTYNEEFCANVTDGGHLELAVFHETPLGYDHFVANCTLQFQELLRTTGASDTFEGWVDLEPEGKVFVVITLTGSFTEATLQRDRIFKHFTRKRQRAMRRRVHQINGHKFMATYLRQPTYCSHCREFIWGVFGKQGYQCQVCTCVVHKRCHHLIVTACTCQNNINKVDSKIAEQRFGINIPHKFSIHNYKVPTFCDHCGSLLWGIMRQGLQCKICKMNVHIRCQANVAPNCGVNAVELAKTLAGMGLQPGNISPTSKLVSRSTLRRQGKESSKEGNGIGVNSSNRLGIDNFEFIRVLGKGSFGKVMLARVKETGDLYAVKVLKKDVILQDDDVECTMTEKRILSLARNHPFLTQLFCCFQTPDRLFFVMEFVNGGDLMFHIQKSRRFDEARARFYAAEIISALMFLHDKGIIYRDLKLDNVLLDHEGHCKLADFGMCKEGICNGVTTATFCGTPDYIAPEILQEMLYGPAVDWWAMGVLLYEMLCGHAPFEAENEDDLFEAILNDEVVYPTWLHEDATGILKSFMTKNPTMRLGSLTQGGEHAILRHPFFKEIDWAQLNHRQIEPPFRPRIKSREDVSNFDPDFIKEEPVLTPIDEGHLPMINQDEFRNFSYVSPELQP
Experimental: as §1
Human recombinant PKCη is obtained from PanVera and is used under the assay conditions as described under Section A.1 above.

[6] = target: T4, Human recombinant PKCε (Homo sapiens, UniProt Q02156); experiment: Protein Kinase Cε assay; assay type: biochemical; conditions: selectivity ratio relative to PKCα
T4 construct: purchased Oxford Biomedical Research
T4 sequence (Q02156 1-737): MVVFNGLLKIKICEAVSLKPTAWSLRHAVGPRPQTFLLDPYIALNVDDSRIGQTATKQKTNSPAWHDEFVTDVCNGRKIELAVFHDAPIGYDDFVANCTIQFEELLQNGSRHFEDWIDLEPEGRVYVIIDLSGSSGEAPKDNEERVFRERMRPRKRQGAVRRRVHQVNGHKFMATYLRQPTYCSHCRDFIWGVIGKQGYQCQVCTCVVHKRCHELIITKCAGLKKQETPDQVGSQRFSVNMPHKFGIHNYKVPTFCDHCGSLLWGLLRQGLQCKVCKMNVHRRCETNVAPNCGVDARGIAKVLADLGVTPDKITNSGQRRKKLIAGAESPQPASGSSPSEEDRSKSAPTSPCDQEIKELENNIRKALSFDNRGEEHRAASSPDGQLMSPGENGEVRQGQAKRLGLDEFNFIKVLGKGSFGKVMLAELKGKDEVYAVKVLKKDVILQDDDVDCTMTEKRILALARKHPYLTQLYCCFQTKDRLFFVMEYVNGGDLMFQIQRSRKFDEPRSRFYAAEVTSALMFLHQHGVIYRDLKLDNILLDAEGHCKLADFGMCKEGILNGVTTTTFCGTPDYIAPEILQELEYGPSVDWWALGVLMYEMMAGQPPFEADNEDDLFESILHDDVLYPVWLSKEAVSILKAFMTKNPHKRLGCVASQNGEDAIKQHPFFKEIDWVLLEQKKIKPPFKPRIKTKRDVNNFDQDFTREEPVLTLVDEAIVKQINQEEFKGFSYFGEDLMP
Experimental: as §1
Human recombinant PKCε is obtained from Oxford Biomedical Research and is used under the assay conditions as described under Section A.1 above.

T1 sequence (P05771 whole entry): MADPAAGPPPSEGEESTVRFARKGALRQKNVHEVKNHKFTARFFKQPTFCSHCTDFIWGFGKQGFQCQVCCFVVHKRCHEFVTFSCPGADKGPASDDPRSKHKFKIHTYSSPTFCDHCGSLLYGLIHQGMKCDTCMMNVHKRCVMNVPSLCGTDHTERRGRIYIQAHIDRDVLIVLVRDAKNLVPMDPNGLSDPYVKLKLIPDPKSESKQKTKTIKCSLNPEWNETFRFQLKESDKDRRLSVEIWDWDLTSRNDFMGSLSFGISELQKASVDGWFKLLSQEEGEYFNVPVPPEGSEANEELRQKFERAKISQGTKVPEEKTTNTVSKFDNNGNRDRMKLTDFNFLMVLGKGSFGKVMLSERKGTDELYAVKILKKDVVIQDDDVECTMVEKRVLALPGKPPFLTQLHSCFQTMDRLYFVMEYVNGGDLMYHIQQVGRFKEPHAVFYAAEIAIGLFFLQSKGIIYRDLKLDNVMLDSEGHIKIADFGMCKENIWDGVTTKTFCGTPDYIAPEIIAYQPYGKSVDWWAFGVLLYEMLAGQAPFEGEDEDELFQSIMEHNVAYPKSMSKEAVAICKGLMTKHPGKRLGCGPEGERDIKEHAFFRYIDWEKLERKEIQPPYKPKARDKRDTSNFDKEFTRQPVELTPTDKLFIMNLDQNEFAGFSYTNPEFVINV

Cn1c2ccccc2c2c3c(c4c5ccccc5n(CCC#N)c4c21)CNC3=O [Example 47, Gö 6976]
β/α: ratio of the IC50 value for PKC β to the IC50 value for PKCα [1]: 5.3
θ/α: ratio of the IC50 value for PKC θ to the IC50 value for PKCα [2]: 222.3
MLR/BM: ratio of the IC50 value as determined by the MLR assay to the IC50 value as determined by the BM assay [3]: 2.1
δ/α: ratio of the IC50 value for PKC δ to the IC50 value for PKCα [4]: 120.5
η/α: ratio of the IC50 value for PKC η to the IC50 value for PKCα [5]: 118.7
ε/α: ratio of the IC50 value for PKC ε to the IC50 value for PKCα [6]: 45.8

CN(C)Cc1ccc2ccc(Cl)c(C3=C(c4cn(C)c5ccccc45)C(=O)NC3=O)c2c1 [Example 1, 3-(2-Chloro-7-dimethylaminomethyl-naphthalen-1-yl)-4-(1-methyl-1H-indol-3-yl)-pyrrole-2,5-dione]
β/α: ratio of the IC50 value for PKC β to the IC50 value for PKCα [1]: 1.2
θ/α: ratio of the IC50 value for PKC θ to the IC50 value for PKCα [2]: 90.8
MLR/BM: ratio of the IC50 value as determined by the MLR assay to the IC50 value as determined by the BM assay [3]: 21.6
δ/α: ratio of the IC50 value for PKC δ to the IC50 value for PKCα [4]: 66.4
η/α: ratio of the IC50 value for PKC η to the IC50 value for PKCα [5]: 140.2
ε/α: ratio of the IC50 value for PKC ε to the IC50 value for PKCα [6]: 122.6
